According to US6759051B2, “Cosmetic or dermatological composition comprising at least one alkynyl carbamate and at least one polyol” (L'Oreal, priority 1998, dated 2004):

System: Pityrosporum ovale from the Institut Pasteur, reference CIP 1363.82
Assay: Antifungal activity by the MIC (Minimum Inhibitory Concentration) method
Assay type: cell-based
Settings: each compound at the concentration MIC/2; Sabouraud+Tween 40+glyceryl monooleate agar medium, 48 hours at 30° C
Experimental: The activity of the combination of compound (A) and compound (B) was determined by a conventional method known as the MIC (Minimum Inhibitory Concentration), the MIC corresponding to the concentration at which a given […] inhibits the growth of a given strain under defined conditions.
In this instance, strains of Pityrosporum ovale from the Institut Pasteur, reference CIP 1363.82, were used.
An inoculum of a fresh culture, of 1 to 10×10^7 cells/ml, is introduced into a Sabouraud+Tween 40 at 10 g/l+glyceryl monooleate at 2.5 g/l agar medium, in the presence or absence of the compound or of the combination of the compounds to be studied, and incubated for 48 hours at 30° C.

CCCCNC(=O)OCC#CI [Compound A, 3-iodo-2-propynyl butyl carbamate]
growth of the microorganism: identical to that of the control medium

CCCCC(CC)COCC(O)CO (centres unmarked) [Compound B, 3-(2-ethylhexyloxy)-1,2-propanediol]
growth of the microorganism: identical to that of the control medium
